Source: patent US20090074831A1, “LOCAL […] […] OF mTOR INHIBITORS IN COMBINATION WITH PEROXISOME PROLIFERATORS-ACTIVATED RECEPTOR STIMULATORS” (priority 2007, published 2009)

Key:
[1] = system: LDL; experiment: ex vivo copper-induced LDL peroxidation, monitoring of diene conjugates (lag phase); parameters: species or system human; conditions: treatment for one month; preliminary results
From the text: Dietary intervention and smoking habits were similar in all groups. Probucol may simply be a more powerful antioxidant than the combination of vitamins. To this regard, preliminary results from the continuous spectrophotometric monitoring of diene conjugates in LDL after the addition of copper ions to the isolated lipoprotein ex vivo (Free Radic Res Commun 1989; 6:67-75) of MVP patients are noteworthy.

[2] = system: Patients; experiment: IVUS substudy of the MVP restenosis trial; type: in vivo, human
From the text: Serial intravascular ultrasound (IVUS) examinations have been performed in a consecutive series of patients involved in the MVP trial. By providing tomographic views of coronary arteries with high resolution, IVUS allows quantitative assessment of changes in arterial lumen and wall dimensions. We were therefore able in this study to determine the pathophysiology of coronary restenosis after balloon angioplasty in patients systematically undergoing follow-up IVUS examination and determine the effect of probucol on tissue hyperplasia and vascular remodeling after coronary angioplasty. The present invention concerns the IVUS substudy from the MVP restenosis trial. MVP was a double-blind placebo-controlled randomized clinical trial with four study groups. The protocol was approved by the Montreal Heart Institute institutional review board. The MVP study design, inclusion and exclusion criteria have been previously described (N Engl J Med 1997; 365-372). Briefly, patients referred for elective coronary angioplasty were evaluated at least 30 days prior to their scheduled procedure. Eligible patients were asked to provide written informed consent. […] The sequence of contrast injections with the exact degree of angulation was recorded and used for every angiogram. Coronary arteriograms (pre-, post-procedure, and final follow-up) were analyzed together using the Coronary Measurement System (CMS), as previously reported. […] Patients were readmitted for follow-up coronary angiography at five to seven months. […] IVUS imaging was monitored by an experienced cardiologist, but the angioplasty operator was blinded to ultrasound results to avoid altering standard balloon angioplasty practice. […] One angiographic view was recorded on videotape before beginning pullback of the IVUS catheter. […] Simultaneous high-resolution fluoroscopic images were recorded on the IVUS imaging screen during pullbacks to constantly know the location of the IVUS transducer. […]

[3] = system: Patients; experiment: MultiVitamins and Probucol (MVP) randomized clinical trial, angiographic and clinical endpoints; type: in vivo, human
From the text: It was not possible to determine with angiography alone whether probucol acted via inhibition of tissue hyperplasia or improvement in vascular remodeling. […] In addition, the invention enables the skilled practitioner to use probucol in conjunction with other percutaneous coronary interventions such as stenting if it is deemed appropriate.
The present invention concerns the IVUS substudy from the MVP restenosis trial. MVP was a double-blind placebo-controlled randomized clinical trial with four study groups. The protocol was approved by the Montreal Heart Institute institutional review board. The MVP study design, inclusion and exclusion criteria have been previously described (N Engl J Med 1997; 365-372). Briefly, patients referred for elective coronary angioplasty were evaluated at least 30 days prior to their scheduled procedure. Eligible patients were asked to provide written informed consent. Patients were eligible if they were scheduled to undergo standard balloon angioplasty on at least one native coronary artery and had at least one de novo target lesion with luminal narrowing of fifty percent or more by caliper measurements.
Beginning thirty days prior to scheduled angioplasty, patients were randomly assigned to receive either probucol alone, multivitamins alone, the combination of probucol and multivitamins, or placebo. Probucol 500 mg or matched placebo was administered twice daily. The multivitamin complex, consisting of vitamin E 700 IU, vitamin C 500 mg and beta-carotene 30,000 IU, or matched placebo was also administered in one tablet twice daily. All patients received an extra dose of probucol 1000 mg and/or vitamin E 2000 IU and/or matched placebos twelve hours before angioplasty, according to randomization assignment. […] All patients received aspirin 325 mg daily started at least thirty days before procedure and continued for the study period. Balloon angioplasty was performed according to standard techniques. Intracoronary nitroglycerin (0.3 mg) was given for each target artery for both pre- and post-dilatation angiography and at follow-up. The sequence of contrast injections with the exact degree of angulation was recorded and used for every angiogram. Coronary arteriograms (pre-, post-procedure, and final follow-up) were analyzed together using the Coronary Measurement System (CMS), as previously reported. Patient follow-up included clinical evaluation, exercise treadmill testing, blood chemistry, pill count and drug level measurements, and dietary assessment and intervention. Patients were readmitted for follow-up coronary angiography at five to seven months. […]

CC(C)(Sc1cc(C(C)(C)C)c(O)c(C(C)(C)C)c1)Sc1cc(C(C)(C)C)c(O)c(C(C)(C)C)c1 [Probucol Alone, 4,4′-([1-methylethylidene)bis(thio)]bis-[2,6-bis(1,1-dimethylethyl)phenol]]
protection against LDL oxidation (lag phase for LDL peroxidation) [1]: significantly greater protection against LDL oxidation than vitamins alone or the combination of probucol and vitamins
Lumen area (mm^2), Follow-up Post PTCA (change) ([2]; efficacy analysis in compliant patients): −0.15 ± 1.70 mm^2
Lumen area (mm^2), Follow-up Post PTCA (change) ([2]; per segment analysis, Placebo −1.21 ± 1.88): −0.15 ± 1.70 mm^2
increase in vessel enlargement ([2]; probucol only versus placebo (EEM 1.74 versus 0.29 mm^2)): seven hundred-thirty
patients in whom restenosis still occurred ([3]; probucol alone): over twenty
reduction in restenosis rate per segment compared to placebo ([3]; probucol given alone): forty-seven
reduction in the need for repeat angioplasty compared to placebo ([3]; probucol given alone, at 6 month): fifty-eight
reduction in angiographic lumen loss compared to placebo ([3]; probucol given alone, thirty days before and six months after angioplasty): sixty-eight
